Test results as given in US4347361A, “4,5α-Epoxy-3-hydroxy or methoxy-7-(1-hydroxy-alkyl or 1-oxoalkyl)morphinan-6-one compounds” (SISA, Incorporated, priority 1980, dated 1982).

Key:
[1] = test system: male albino Wistar rats (morphine effect, tail flick); assay: narcotic antagonist activity, modified rat tail flick test (inhibition of morphine effect); assay type: in vivo; conditions: intraperitoneal; for AD50: X%(Y) / AD50: Ia at dose: vs ED80 morphine; for ED50: ip, 10 min before ED80 dose of morphine s.c., read-out: AD50 (dose required to inhibit the morphine effect by 50%); for AD50: Ia at dose: at 10 (mg/kg), Ia not defined
Experimental: (B) Narcotic antagonist activity in rats (modified rat tail flick test).
The narcotic antagonist effects of test compounds were determined by a modification of the rat tail flick procedure of Harris and Pierson, J. Pharmacol. Exp. Ther. 143:141 (1964).
Male albino Wistar rats (100-120 g.) were used for this study. A rat's tail is so placed so as to cover a photocell. Heat is applied by a lamp in a reflector with a timer being connected to the lamp and photocell so that the timer goes on when the light is turned on and is turned off when the photocell is uncovered. A rheostat, incorporated into a heating lamp is used to adjust the intensity of the light falling on the tail of the rat such that the rat's control reaction time is from 1.2 to 5.8 seconds. Animals with a control reaction time outside this range are rejected. The rheostat adjustment is made only if a significant proportion (more than 1 out of every 10 rats) of the reaction times are outside the range of 1.2 to 5.8 seconds. Groups of five rats were used each time, and two control times were determined at least 30 minutes apart.
The test drug was given intraperitoneally and this was followed ten minutes later by an ED80 dose of morphine subcutaneously. The animals were retested at 20 minutes after the morphine injection. Control animals were given morphine only. […] The data were calculated as follows: [formula]
The data were plotted on log-probit paper and AD50 values, i.e., the dose required to inhibit the morphine effect by 50% within 95% confidence limits, were determined by the method of Litchfield and Wilcoxon.

[2] = test system: male CD-1 mice (acetic acid writhing); assay: acetic acid mouse writhing test (analgesic effects); assay type: in vivo, mice (male CD-1); conditions: subcutaneous; for ED50: sc, 0.25 h, acetic acid i.p. 15 min post drug, read-out: ED50 (dose required to reduce the number of writhes by 50%); for % reduction of number of writhes (ED50 column, X%(Y)): at 10 mg/kg; for ED50: Ia at dose: at 10 (mg/kg), Ia not defined
Experimental: (A) Analgesic effects upon mice (acetic acid writhing test).
The analgesic effects of test compounds were determined in mice by use of the acetic acid writhing test described by B. A. Whittle, Brit. J. Pharmacol., 22:246 (1964). In this test at least three groups of five male CD-1 mice each were given subcutaneous doses of the test drug dissolved in either distilled water or distilled water acidified with HCl depending on the solubility of the compound. Fifteen (15) minutes post drug, 0.4 milliliter of a 0.75% or 1.0% or 0.6 milliliter of a 1.0% V/V acetic acid in distilled water solution was administered intraperitoneally. The number of writhes in a 20 minute interval beginning 5 minutes after the acetic acid injection were determined and compared with the number of writhes in control groups which had received only acetic acid.
Percent inhibition of writhing was calculated as: [formula]
The ED50 dose, i.e., the dose required to reduce the number of writhes by 50%, was determined graphically from a plot of % inhibition as a probit versus log dose. Confidence limits of 95% were calculated on the basis of those results falling in the range 16-84% inhibition. See Litchfield, J. T. and Wilcoxon, F., J. Pharmacol. Exp. Ther., 96:99, (1949).

Structure (SMILES)	ED50 [2]	ED50 [1]	other results
CCCC(C)(O)C1C[C@H]2[C@H]3Cc4ccc(OC)c5c4[C@@]2(CCN3CC2CC2)[C@@H](O5)C1=O (stereo partly drawn) [TR-5499]	0.42 mg/kg	–	AD50: X%(Y) ([1]; at 7 mg/kg): 12%
COc1ccc2c3c1O[C@H]1C(=O)C(C(=O)CCc4ccccc4)C[C@H]4[C@@H](C2)N(C)CC[C@]314 (stereo partly drawn) [MLS-5688H]	0.62 mg/kg	–	–
CCCCC(C)(O)C1C[C@H]2[C@H]3Cc4ccc(O)c5c4[C@@]2(CCN3CC2CC2)[C@@H](O5)C1=O (stereo partly drawn) [TR-5551]	–	2.5 mg/kg	% reduction of number of writhes (ED50 column, X%(Y)) [2]: 40%
CC(C)C(C)(O)C1C[C@H]2[C@H]3Cc4ccc(O)c5c4[C@@]2(CCN3CC2CC2)[C@@H](O5)C1=O (stereo partly drawn) [TR-5572]	7.8 mg/kg	2.2 mg/kg	–
O=C(c1ccccc1)C1C[C@H]2[C@H]3Cc4ccc(O)c5c4[C@@]2(CCN3CC2CC2)[C@@H](O5)C1=O (stereo partly drawn) [TR-5506]	4.35 mg/kg	0.24 mg/kg	–
CCCCC(=O)C1C[C@H]2[C@H]3Cc4ccc(O)c5c4[C@@]2(CCN3CC2CC2)[C@@H](O5)C1=O (stereo partly drawn) [TR-5520]	1.59 mg/kg	–	AD50: X%(Y) ([1]; at 10 mg/kg): 77%
CCCCC(=O)C1C[C@H]2[C@H]3Cc4ccc(OC)c5c4[C@@]2(CCN3CC2CC2)[C@@H](O5)C1=O (stereo partly drawn) [TR-5519]	> 10 mg/kg	–	AD50: Ia at dose [1]: Ia
CCCC(=O)C1C[C@H]2[C@H]3Cc4ccc(O)c5c4[C@@]2(CCN3C)[C@@H](O5)C1=O (stereo partly drawn) [MLS-5695]	5.25 mg/kg	–	–
COc1ccc2c3c1O[C@H]1C(=O)C(C(=O)c4ccccc4)C[C@H]4[C@@H](C2)N(CC2CC2)CC[C@]314 (stereo partly drawn) [TR-5501]	11.3 mg/kg	8 mg/kg	–
CCCCCCC(=O)C1C[C@H]2[C@H]3Cc4ccc(OC)c5c4[C@@]2(CCN3CC2CC2)[C@@H](O5)C1=O (stereo partly drawn) [TR-5539]	> 10 mg/kg	> 10 mg/kg	–
COc1ccc2c3c1O[C@H]1C(=O)C(C(=O)C(C)C)C[C@H]4[C@@H](C2)N(CC2CC2)CC[C@]314 (stereo partly drawn) [TR-5509]	7.5 mg/kg	2.8 mg/kg	–
CCCCCC(=O)C1C[C@H]2[C@H]3Cc4ccc(O)c5c4[C@@]2(CCN3C)[C@@H](O5)C1=O (stereo partly drawn) [MLS-5689]	0.76 mg/kg	–	–
COc1ccc2c3c1O[C@H]1C(=O)C(C(=O)Cc4ccccc4)C[C@H]4[C@@H](C2)N(CC2CC2)CC[C@]314 (stereo partly drawn) [TR-5577]	–	–	AD50: Ia at dose [1]: Ia; % reduction of number of writhes (ED50 column, X%(Y)) [2]: 21%
CCCC(=O)C1C[C@H]2[C@H]3Cc4ccc(O)c5c4[C@@]2(CCN3CC2CC2)[C@@H](O5)C1=O (stereo partly drawn) [TR-5476, 17-cyclopropylmethyl-4,5α-epoxy-3-hydroxy-7-butanoylmorphinan-6-one]	4.65 mg/kg	2.55 mg/kg	–
COc1ccc2c3c1O[C@H]1C(=O)C(C(=O)CCCc4ccccc4)C[C@H]4[C@@H](C2)N(C)CC[C@]314 (stereo partly drawn) [MLS-5683, 7-(4-Phenylbutyroyl)Dihydrocodeinone]	0.41 mg/kg	–	–
CC(C)(C)CC(=O)C1C[C@H]2[C@H]3Cc4ccc(O)c5c4[C@@]2(CCN3CC2CC2)[C@@H](O5)C1=O (stereo partly drawn) [TR-5574]	–	> 10 mg/kg	ED50: Ia at dose [2]: Ia
CCCCCC(=O)C1C[C@H]2[C@H]3Cc4ccc(OC)c5c4[C@@]2(CCN3CC2CC2)[C@@H](O5)C1=O (stereo partly drawn) [TR-5504]	5.7 mg/kg	–	AD50: Ia at dose [1]: Ia
COc1ccc2c3c1O[C@H]1C(=O)C(C(C)(C)O)C[C@H]4[C@@H](C2)N(CC2CC2)CC[C@]314 (stereo partly drawn) [TR-5479]	–	–	AD50: X%(Y) ([1]; at 10 mg/kg): 41%; ED50: Ia at dose [2]: Ia
CCCCC(C)(O)C1C[C@H]2[C@H]3Cc4ccc(OC)c5c4[C@@]2(CCN3CC2CC2)[C@@H](O5)C1=O (stereo partly drawn) [TR-5544]	–	–	AD50: Ia at dose [1]: Ia; % reduction of number of writhes (ED50 column, X%(Y)) [2]: 10%

Structure (SMILES)	ED50 [2]	ED50 [1]	other results
CCCC(C)(O)C1C[C@H]2[C@H]3Cc4ccc(O)c5c4[C@@]2(CCN3CC2CC2)[C@@H](O5)C1=O (stereo partly drawn) [TR-5543, 17-cyclopropylmethyl-4,5α-epoxy-3-hydroxy-7-(1-hydroxy-1-methylbutyl)morphinan-6-one]	1.8 mg/kg	2.8 mg/kg	–
COc1ccc2c3c1O[C@H]1C(=O)C(C(C)(C)O)C[C@H]4[C@@H](C2)N(C)CC[C@]314 (stereo partly drawn) [TR-5492]	4.5 mg/kg	–	–
CN1CC[C@]23c4c5ccc(O)c4O[C@H]2C(=O)C(C(=O)CCc2ccccc2)C[C@H]3[C@H]1C5 (stereo partly drawn) [MLS-5690]	0.105 mg/kg	–	–
COc1ccc2c3c1O[C@H]1C(=O)C(C(=O)C(C)(C)C)C[C@H]4[C@@H](C2)N(CC2CC2)CC[C@]314 (stereo partly drawn) [TR-5571]	–	–	AD50: X%(Y) ([1]; at 10 mg/kg): 13%; ED50: Ia at dose [2]: Ia
CCCCCC(=O)C1C[C@H]2[C@H]3Cc4ccc(O)c5c4[C@@]2(CCN3CC2CC2)[C@@H](O5)C1=O (stereo partly drawn) [TR-5505]	0.29 mg/kg	22 mg/kg	–
COc1ccc2c3c1O[C@H]1C(=O)C(C(C)=O)C[C@H]4[C@@H](C2)N(CC2CC2)CC[C@]314 (stereo partly drawn) [TR-5463]	–	–	AD50: Ia at dose [1]: Ia; % reduction of number of writhes (ED50 column, X%(Y)) [2]: 9%
CCCCCCC(=O)C1C[C@H]2[C@H]3Cc4ccc(O)c5c4[C@@]2(CCN3CC2CC2)[C@@H](O5)C1=O (stereo partly drawn) [TR-5540]	0.4 mg/kg	–	AD50: Ia at dose [1]: Ia
O=C(c1ccc(F)cc1)C1C[C@H]2[C@H]3Cc4ccc(O)c5c4[C@@]2(CCN3CC2CC2)[C@@H](O5)C1=O (stereo partly drawn) [TR-5579]	–	–	AD50: X%(Y) ([1]; at 10 mg/kg): 45%; % reduction of number of writhes (ED50 column, X%(Y)) [2]: 29%
CCCC(=O)C1C[C@H]2[C@H]3Cc4ccc(OC)c5c4[C@@]2(CCN3C)[C@@H](O5)C1=O (stereo partly drawn) [MLS-5692]	–	–	ED50: Ia at dose [2]: Ia
CCCCCC(C)(O)C1C[C@H]2[C@H]3Cc4ccc(O)c5c4[C@@]2(CCN3CC2CC2)[C@@H](O5)C1=O (stereo partly drawn) [TR-5538]	0.28 mg/kg	6.6 mg/kg	–
CCCCCC(C)(O)C1C[C@H]2[C@H]3Cc4ccc(O)c5c4[C@@]2(CCN3C)[C@@H](O5)C1=O (stereo partly drawn) [MLS-5694]	2.9 mg/kg	–	–
CCCCCC(=O)C1C[C@H]2[C@H]3Cc4ccc(OC)c5c4[C@@]2(CCN3C)[C@@H](O5)C1=O (stereo partly drawn) [MLS-5682]	4 mg/kg	–	–
CC(C)C(=O)C1C[C@H]2[C@H]3Cc4ccc(O)c5c4[C@@]2(CCN3CC2CC2)[C@@H](O5)C1=O (stereo partly drawn) [TR-5511]	> 10 mg/kg	0.81 mg/kg	–
CC(=O)C1C[C@H]2[C@H]3Cc4ccc(O)c5c4[C@@]2(CCN3CC2CC2)[C@@H](O5)C1=O (stereo partly drawn) [TR-5475]	4.05 mg/kg	1.3 mg/kg	–
CCC(=O)C1C[C@H]2[C@H]3Cc4ccc(O)c5c4[C@@]2(CCN3CC2CC2)[C@@H](O5)C1=O (stereo partly drawn) [TR-5573]	–	0.51 mg/kg	ED50: Ia at dose [2]: Ia
CCC(=O)C1C[C@H]2[C@H]3Cc4ccc(OC)c5c4[C@@]2(CCN3CC2CC2)[C@@H](O5)C1=O (stereo partly drawn) [TR-5570]	–	6.5 mg/kg	% reduction of number of writhes (ED50 column, X%(Y)) [2]: 11%
CCCC(=O)C1C[C@H]2[C@H]3Cc4ccc(OC)c5c4[C@@]2(CCN3CC2CC2)[C@@H](O5)C1=O (stereo partly drawn) [TR-5464]	2.81 mg/kg	8.1 mg/kg	–
CN1CC[C@]23c4c5ccc(O)c4O[C@H]2C(=O)C(C(=O)CCCc2ccccc2)C[C@H]3[C@H]1C5 (stereo partly drawn) [MLS-5691, 7-(4-Phenylbutyroyl)Dihydromorphone]	0.0052 mg/kg	–	–
COc1ccc2c3c1O[C@H]1C(=O)C(C(=O)c4ccc(F)cc4)C[C@H]4[C@@H](C2)N(CC2CC2)CC[C@]314 (stereo partly drawn) [TR-5575]	–	–	AD50: X%(Y) ([1]; at 10 mg/kg): 17%; ED50: Ia at dose [2]: Ia
